Measured values from patent US5776932A, “1,3,5-tribsubstituted indazole derivatives, processes for preparing, and for pharmacological treatment therewith” (Arzneimittelwerk Dresden G.m.b.H., priority 1996, dated 1998).
pIC50: −log10 of the molar value.

Columns and labels:
[1] = target: T1, arachidonate-5-lipoxygenase (Rattus norvegicus, UniProt P12527); test: Inhibition of 5-lipoxygenase in prepared macrophages from Wistar rats; format: cell-based; details: quadruple determinations, mean IC50, read-out: IC50 (50% inhibition of 5-lipoxygenase)
T1 construct: using prepared macrophages from Wistar rats; endogenous in cells; host or cells: prepared macrophages from Wistar rats
T1 sequence (P12527 1-673): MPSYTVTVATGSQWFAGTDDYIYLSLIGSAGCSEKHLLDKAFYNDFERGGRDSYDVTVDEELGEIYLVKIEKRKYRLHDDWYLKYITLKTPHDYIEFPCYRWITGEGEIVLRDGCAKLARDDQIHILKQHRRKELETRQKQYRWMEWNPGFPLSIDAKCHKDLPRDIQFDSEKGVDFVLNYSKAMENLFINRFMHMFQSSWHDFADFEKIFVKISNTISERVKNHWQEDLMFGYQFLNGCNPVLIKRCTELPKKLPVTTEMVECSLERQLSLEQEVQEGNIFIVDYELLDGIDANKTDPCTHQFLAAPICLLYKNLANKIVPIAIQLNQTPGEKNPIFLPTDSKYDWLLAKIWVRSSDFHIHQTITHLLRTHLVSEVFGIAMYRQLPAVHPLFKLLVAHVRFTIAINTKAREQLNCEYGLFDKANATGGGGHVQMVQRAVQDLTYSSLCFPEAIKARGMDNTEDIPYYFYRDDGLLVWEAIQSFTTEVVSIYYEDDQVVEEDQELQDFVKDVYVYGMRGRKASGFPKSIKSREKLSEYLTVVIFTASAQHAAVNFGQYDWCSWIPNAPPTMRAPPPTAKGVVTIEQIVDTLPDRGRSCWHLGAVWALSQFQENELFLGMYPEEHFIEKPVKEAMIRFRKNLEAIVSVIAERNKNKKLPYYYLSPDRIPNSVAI
From the text: Murphy, R. C. and Matthews, W. R., Purification and Characterization of Leukotrienes from Mastocytoma Cells, Methods in Enzymology, 86, pp. 409-416.
Argentiere, D. D., Ritchie, D. M. et al., Tepoxalin: A Dual Cyclooxygenase/5-Lipoxygenase Inhibitor of Arachidonic Acid Metabolism with Potent Anti-inflammatory Activity and a Favorable Gastrointestinal Profile, The Journal of Pharmacology and Experimental Therapeutics, Vol. 271, No. 3, 1399-1408, 1994.
Carter, G. W., Young, P. R. et al., 5-Lipoxygenase Inhibitory activity of Zileuton, The Journal of Pharmacology and Experimental Therapeutics, Vol. 256, No. 3, 1991.
The experiments were all conducted as quadruple determinations, by combining four partial experiments in each case were combined to determine the mean IC50 value.

[2] = system: tracheal segments from actively sensitized guinea-pigs; test: Inhibition of the antigen (ovalbumin)-induced contraction of isolated tracheal segments from actively sensitized guinea-pigs; parameters: species or system guinea-pig; details: Cavia porcellus, under mepyramine and indomethacin protection
Protocol: For this purpose, isolated tracheal segments from guinea-pigs actively sensitized against ovalbumin by the s.c. administration of 10 μg of ovalbumin with 1 mg of aluminum hydroxide adjuvant, three weeks before removal of the organ, and a booster dose of the same amount of ovalbumin and aluminum hydroxide s.c. one week before removal of the organ. The segments were placed in organ baths filled with a nutrient solution aerated with carbogen which is a mixture of 95% oxygen and 5% carbon dioxide, and kept at 37° C., and were connected to isometric force transducers. After preincubation with mepyramine to eliminate histamine, and indomethacin for the inhibition of cyclooxygenase, 5×10^-7 mol/l carbachol (carbamylcholine chloride) was added and a contraction was induced. 10 μg/ml ovalbumin as an allergen was then added to the bath liquid and the maximum contraction of the tracheal segments which was thereby induced was correlated with the effect of the carbachol as control (=100%). The test substances were added to the organ bath 30 minutes before the allergen-induced contraction. Table 2 below indicates the IC50 values, i.e. the concentrations which cause a 50% inhibition of the contraction of isolated tracheal segments from the guinea-pig. The IC50 values were determined by testing 3-4 concentrations on 4-8 organs in each case.

[3] = system: SRS-A bronchoconstriction in guinea-pigs sensitized with ovalbumin; test: SRS-A bronchoconstriction in anaesthetized, ovalbumin-sensitized guinea-pigs after inhalation of antigen; format: in vivo; details: -2 hrs, 1% OA, 20 inspirations
Protocol: For this purpose, guinea-pigs are actively sensitized against ovalbumin (OA) with 20 μg OA+20 mg Al(OH)3 in 0.5 ml, administered intraperitoneally (i.p.) and a booster dose of the same is administered 14 days later. One week after the booster dose, the animals are i.p. anaesthetized with urethane and connected to an apparatus (Mumed Physiological Recorder 800) for the determination of pulmonary function parameters. The animals are pretreated with mepyramine to antagonize the histamine, with indomethacin to inhibit the formation of prostaglandins, and with propanolol to eliminate β-adrenergic mechanisms. If an allergic reaction is induced after this treatment, the associated bronchospam is extensively attributable to the effect of leukotrienes.
Before the experiment the test substances were administered orally two hours before the challenge. After an equilibration period an asthmatic challenge attack is induced by the nebulization of a 1% ovalbumin solution over 20 inspirations.
The drop in dynamic compliance is used as a suitable and well reproducible parameter for characterizing the action of leukotrienes. Under control conditions, after pretreatment and ovalbumin challenge, guinea-pigs react with a slow drop in compliance of c. 30-40% over 15 minutes.

late phase eosinophilia = test: Inhibition of late phase eosinophilia 24 hours after the inhalational ovalbumin challenge on actively sensitized guinea-pigs; format: in vivo; details: -2 h; for EOS, B (eosinophils in the group treated with the substance, with challenge): x ± s
From the text: Eosinophilic granulocytes play an important part in the transition of allergic diseases, e.g. bronchial asthma, to the chronic stage. Thus the bronchoalveolar lavage fluid (BAL) contains an increased number of eosinophils a few hours after an allergen-induced asthmatic attack. Eosinophils are expected to play an important part in cell damage since they contain histotoxic proteins, like major basic protein (MBP) and eosinophil cation protein (ECP), in their granula. It is also assumed that substances which prevent the infiltration of eosinophils have a therapeutic action against allergic diseases like bronchial asthma.
The inhibition of eosinophil infiltration by the substances was tested in vivo on guinea-pigs actively sensitized against ovalbumin by the substantenous administration of 10 μg of OA, with 1 μg of aluminum hydroxide adjuvant, three weeks before the beginning of the experiment, and a booster dose containing the same amount of OA and aluminum hydroxide was administrated substantaneously one week before the beginning of the experiment. Three weeks after the first sensitization, the animals were placed in a plastic box and exposed to an aerosol of 0.5% OA dissolved in a physiological saline solution. The nebulization time was 20-30 seconds. After 24 hours the animals were intraperitoneally anaesthetized with 1.5 g/kg body weight ethylurethane and a bronchioalveolar lavage was performed with 2×5 ml of physiological saline solution. The lavage fluid was collected and centrifuged at 400 G for 10 minutes and the cell pellet was then resuspended in 1 ml of physiological saline solution. The eosinophils were microscopically counted in a Neubauer chamber after staining using the No. 5877 Becton-Dickinson test kit for eosinophilia. The number of eosinophils was indicated in millions per animal. Each test was also carried out with two control groups with and without antigen challenge.
The percentage inhibition of the eosinophilia in the experimental groups treated with the substance is calculated by the following formula:
(A-C)-(B-C)/(A-C)×100=% inhibition
The test substances were administered orally or intraperitoneally as a triturate in 0.5% 5-hydroxyethylcellulose two hours before the antigen challenge.

| Structure (SMILES) | pIC50 [1] | pIC50 ([2]; carbachol = 100%) | % drop in dyn. compliance ([3]; 5.0 mg/kg oral) | % inhibition ([3]; 5.0 mg/kg oral) | % drop in dyn. compliance ([3]; 10.0 mg/kg oral) | % inhibition ([3]; 10.0 mg/kg oral) | % inhibition (eosinophilia) (late phase eosinophilia; 10 mg/kg i.p.) | EOS, B (eosinophils in the group treated with the substance, with challenge) (late phase eosinophilia; 10 mg/kg i.p.) | % inhibition (eosinophilia) (late phase eosinophilia; 30 mg/kg p.o.) | EOS, B (eosinophils in the group treated with the substance, with challenge) (late phase eosinophilia; 30 mg/kg p.o.) | inhibition at 3 µM ([2]; at 3.0 μmol/l, read-out: maximum inhibition (ovalbumin-induced contraction)) | % inhibition (eosinophilia) (late phase eosinophilia; 1 mg/kg i.p.) | EOS, B (eosinophils in the group treated with the substance, with challenge) (late phase eosinophilia; 1 mg/kg i.p.) |
| --- | --- | --- | --- | --- | --- | --- | --- | --- | --- | --- | --- | --- | --- |
| COc1ccc2c(c1)c(O)nn2Cc1ccc(OCc2ccc3ccccc3n2)cc1 [Example 50] | 7.36 | 5.54 | 22 ± 10% | 45% | 12 ± 11% | 70% | 46.0% | 3.8 ± 2.8 mill./animal | 34.0% | 6.0 ± 3.4 mill./animal | – | – | – |
| COc1ccc2c(c1)c(O)nn2Cc1ccc(Cl)c(Cl)c1 [Example 6, 1-(3,4-dichlorobenzyl)-5-methoxy-1H-indazole-3-ol] | 6.39 | – | 25 ± 9.9% | 38% | 7.0 ± 2.7% | 83% | – | – | 40.4% | 3.5 ± 1.7 mill./animal | 40% | 58.8% | 2.9 ± 1.2 mill./animal |
